Measurements taken from US20230017045A1, “PYRIDINE AND PYRIMIDINE CARBOXYLATE HERBICIDES AND METHODS OF USE THEREOF” (Dow AgroSciences LLC, priority 2017, published 2023).

These compounds were tested on test plant species (assay: Post-emergent herbicidal activity test (greenhouse, foliar spray, visual growth reduction)). Conditions: post-emergence, 336 h, ECHCG: barnyardgrass (Echinochloa crus-galli), 140 g ai/ha, 14 days after application, read-out: Visual Growth Reduction (%) 14 Days After Application, ECHCG.
Assay type: in vivo
Method: Post-emergent Test: Seeds or nutlets of the desired test plant species were planted in Sun Gro Metro-Mix® 360 planting mixture, which typically has a pH of 6.0 to 6.8 and an organic matter content of about 30 percent, in plastic pots with a surface area of 64 square centimeters. In some aspects, to ensure good germination and healthy plants, a fungicide treatment and/or other chemical or physical treatment was applied. The plants were grown for 7-21 d in a greenhouse with an approximate 15 h photoperiod which was maintained at 23-29° C. during the day and 22-28° C. during the night. Nutrients and water were added on a regular basis and supplemental lighting was provided with overhead metal halide 1000-Watt lamps as necessary. Plants were used for testing when they reached the first or second true leaf stage. A weighed amount, determined by the highest rate to be tested, of each test compound was placed in a 25 mL glass vial and was dissolved in 4 mL of a 97:3 v/v mixture of acetone and DMSO to obtain concentrated stock solutions. […] The concentrated stock solutions obtained were diluted with 20 mL of an aqueous mixture containing acetone, water, isopropyl alcohol, DMSO, […] crop oil concentrate, and X-77 surfactant in a 48.5:39:10:1.5:1.0:0.02 v/v ratio to obtain spray solutions containing the application rate. Compound requirements are based upon a 12 mL application volume at a rate of 187 liters per hectare (L/ha). Formulated compounds were applied to the plant material with an overhead Mandel track sprayer equipped with […] nozzles calibrated to deliver 187 L/ha over an application area of 0.64 square meters at a spray height of 18 inches (43 cm) above the average plant canopy height. Control plants were sprayed in the same manner with the solvent blank. The treated plants and control plants were placed in a greenhouse as described above and watered by subirrigation to prevent wash-off of the test compounds. After 14 d, the condition of the test plants as compared with that of the nontreated and control plants was determined visually and scored on a scale of 0 to 100 percent where 0 corresponds to no injury and 100 corresponds to complete control. In the reporting of the results, Table A: Percent Growth Reduction Conversion Table was used.
In the case of `COC(=O)c1nc(-c2cc3nonc3cc2F)c(Cl)cc1Cl` [F327, Methyl 3,5-dichloro-6-(6-fluorobenzo[c][1,2,5]oxadiazol-5-yl)picolinate], the pest or weed control at 140 g/ha was 0 to 29%. In the case of `COC(=O)c1nc(-c2ccc(C(F)(F)F)c(C)c2)ccc1Cl` [F308, Methyl 3-chloro-6-(3-methyl-4-(trifluoromethyl)phenyl)picolinate], the pest or weed control at 140 g/ha was 0 to 29%.

Same assay, conditions: post-emergence, 336 h, IPOHE: ivy-leaf morning glory (Ipomoea hederacea), 140 g ai/ha, 14 days after application, read-out: Visual Growth Reduction (%) 14 Days After Application, IPOHE
Work on `COC(=O)c1nc(-c2cc3nonc3cc2F)c(Cl)cc1Cl` [F327, Methyl 3,5-dichloro-6-(6-fluorobenzo[c][1,2,5]oxadiazol-5-yl)picolinate] yielded a pest or weed control at 140 g/ha of 75 to 84%. `COC(=O)c1nc(-c2ccc(C(F)(F)F)c(C)c2)ccc1Cl` [F308, Methyl 3-chloro-6-(3-methyl-4-(trifluoromethyl)phenyl)picolinate] showed a pest or weed control at 140 g/ha of 0 to 29%.

Same assay, conditions: post-emergence, 336 h, KCHSC: kochia (Bassia scoparia), 140 g ai/ha, 14 days after application, read-out: Visual Growth Reduction (%) 14 Days After Application, KCHSC
`COC(=O)c1nc(-c2cc3nonc3cc2F)c(Cl)cc1Cl` [F327, Methyl 3,5-dichloro-6-(6-fluorobenzo[c][1,2,5]oxadiazol-5-yl)picolinate] was tested, and the pest or weed control at 140 g/ha was 0 to 29%. `COC(=O)c1nc(-c2ccc(C(F)(F)F)c(C)c2)ccc1Cl` [F308, Methyl 3-chloro-6-(3-methyl-4-(trifluoromethyl)phenyl)picolinate] was tested, and the pest or weed control at 140 g/ha was 0 to 29%.

Same assay, conditions: post-emergence, 336 h, ORYSA: rice (Oryza sativa), 140 g ai/ha, 14 days after application, read-out: Visual Growth Reduction (%) 14 Days After Application, ORYSA
`COC(=O)c1nc(-c2cc3nonc3cc2F)c(Cl)cc1Cl` [F327, Methyl 3,5-dichloro-6-(6-fluorobenzo[c][1,2,5]oxadiazol-5-yl)picolinate] showed a pest or weed control at 140 g/ha of 0 to 29%. `COC(=O)c1nc(-c2ccc(C(F)(F)F)c(C)c2)ccc1Cl` [F308, Methyl 3-chloro-6-(3-methyl-4-(trifluoromethyl)phenyl)picolinate] gave a pest or weed control at 140 g/ha of 0 to 29%.

Same assay, conditions: post-emergence, 336 h, SETFA: giant foxtail (Setaria faberi), 140 g ai/ha, 14 days after application, read-out: Visual Growth Reduction (%) 14 Days After Application, SETFA
With `COC(=O)c1nc(-c2cc3nonc3cc2F)c(Cl)cc1Cl` [F327, Methyl 3,5-dichloro-6-(6-fluorobenzo[c][1,2,5]oxadiazol-5-yl)picolinate] the pest or weed control at 140 g/ha was 30 to 44%. `COC(=O)c1nc(-c2ccc(C(F)(F)F)c(C)c2)ccc1Cl` [F308, Methyl 3-chloro-6-(3-methyl-4-(trifluoromethyl)phenyl)picolinate] gave a pest or weed control at 140 g/ha of 0 to 29%.

Same assay, conditions: post-emergence, 336 h, SORVU: grain sorghum (Sorghum vulgare), 140 g ai/ha, 14 days after application, read-out: Visual Growth Reduction (%) 14 Days After Application, SORVU
For `COC(=O)c1nc(-c2cc3nonc3cc2F)c(Cl)cc1Cl` [F327, Methyl 3,5-dichloro-6-(6-fluorobenzo[c][1,2,5]oxadiazol-5-yl)picolinate], the pest or weed control at 140 g/ha was 0 to 29%. In the case of `COC(=O)c1nc(-c2ccc(C(F)(F)F)c(C)c2)ccc1Cl` [F308, Methyl 3-chloro-6-(3-methyl-4-(trifluoromethyl)phenyl)picolinate], the pest or weed control at 140 g/ha was 0 to 29%.

Same assay, conditions: post-emergence, 336 h, STEME: common chickweed (Stellaria media), 140 g ai/ha, 14 days after application, read-out: Visual Growth Reduction (%) 14 Days After Application, STEME
For `COC(=O)c1nc(-c2cc3nonc3cc2F)c(Cl)cc1Cl` [F327, Methyl 3,5-dichloro-6-(6-fluorobenzo[c][1,2,5]oxadiazol-5-yl)picolinate], the pest or weed control at 140 g/ha was 0 to 29%. For `COC(=O)c1nc(-c2ccc(C(F)(F)F)c(C)c2)ccc1Cl` [F308, Methyl 3-chloro-6-(3-methyl-4-(trifluoromethyl)phenyl)picolinate], the pest or weed control at 140 g/ha was 0 to 29%.

Same assay, conditions: post-emergence, 336 h, TRZAS: wheat, spring (Triticum aestivum), 140 g ai/ha, 14 days after application, read-out: Visual Growth Reduction (%) 14 Days After Application, TRZAS
In the case of `COC(=O)c1nc(-c2cc3nonc3cc2F)c(Cl)cc1Cl` [F327, Methyl 3,5-dichloro-6-(6-fluorobenzo[c][1,2,5]oxadiazol-5-yl)picolinate], the pest or weed control at 140 g/ha was 0 to 29%. With `COC(=O)c1nc(-c2ccc(C(F)(F)F)c(C)c2)ccc1Cl` [F308, Methyl 3-chloro-6-(3-methyl-4-(trifluoromethyl)phenyl)picolinate] the pest or weed control at 140 g/ha was 0 to 29%.

Same assay, conditions: post-emergence, 336 h, blackgrass (Alopecurus myosuroides), 14 Days After Application, 140 g ai/ha, read-out: Visual Growth Reduction (%) ALOMY
`COC(=O)c1nc(-c2cc3nonc3cc2F)c(Cl)cc1Cl` [F327, Methyl 3,5-dichloro-6-(6-fluorobenzo[c][1,2,5]oxadiazol-5-yl)picolinate] showed a pest or weed control at 140 g/ha of 0 to 29%. Work on `COC(=O)c1nc(-c2ccc(C(F)(F)F)c(C)c2)ccc1Cl` [F308, Methyl 3-chloro-6-(3-methyl-4-(trifluoromethyl)phenyl)picolinate] yielded a pest or weed control at 140 g/ha of 0 to 29%.

Same assay, conditions: post-emergence, 336 h, canada thistle (Cirsium arvense), 14 Days After Application, 140 g ai/ha, read-out: Visual Growth Reduction (%) CIRAR
Compound `COC(=O)c1nc(-c2cc3nonc3cc2F)c(Cl)cc1Cl` [F327, Methyl 3,5-dichloro-6-(6-fluorobenzo[c][1,2,5]oxadiazol-5-yl)picolinate] has a pest or weed control at 140 g/ha of 0 to 29%. `COC(=O)c1nc(-c2ccc(C(F)(F)F)c(C)c2)ccc1Cl` [F308, Methyl 3-chloro-6-(3-methyl-4-(trifluoromethyl)phenyl)picolinate] showed a pest or weed control at 140 g/ha of 0 to 29%.

Same assay, conditions: post-emergence, 336 h, crabgrass (Digitaria sanguinalis), 14 Days After Application, 140 g ai/ha, read-out: Visual Growth Reduction (%) DIGSA
`COC(=O)c1nc(-c2cc3nonc3cc2F)c(Cl)cc1Cl` [F327, Methyl 3,5-dichloro-6-(6-fluorobenzo[c][1,2,5]oxadiazol-5-yl)picolinate] was tested, and the pest or weed control at 140 g/ha was 0 to 29%. Work on `COC(=O)c1nc(-c2ccc(C(F)(F)F)c(C)c2)ccc1Cl` [F308, Methyl 3-chloro-6-(3-methyl-4-(trifluoromethyl)phenyl)picolinate] yielded a pest or weed control at 140 g/ha of 0 to 29%.

Same assay, conditions: post-emergence, 336 h, lambsquarters (Chenopodium album), 14 Days After Application, 140 g ai/ha, read-out: Visual Growth Reduction (%) CHEAL
`COC(=O)c1nc(-c2cc3nonc3cc2F)c(Cl)cc1Cl` [F327, Methyl 3,5-dichloro-6-(6-fluorobenzo[c][1,2,5]oxadiazol-5-yl)picolinate] gave a pest or weed control at 140 g/ha of 30 to 44%. With `COC(=O)c1nc(-c2ccc(C(F)(F)F)c(C)c2)ccc1Cl` [F308, Methyl 3-chloro-6-(3-methyl-4-(trifluoromethyl)phenyl)picolinate] the pest or weed control at 140 g/ha was 0 to 29%.

Same assay, conditions: post-emergence, 336 h, redroot pigweed (Amaranthus retroflexus), 14 Days After Application, 140 g ai/ha, read-out: Visual Growth Reduction (%) AMARE
`COC(=O)c1nc(-c2cc3nonc3cc2F)c(Cl)cc1Cl` [F327, Methyl 3,5-dichloro-6-(6-fluorobenzo[c][1,2,5]oxadiazol-5-yl)picolinate] showed a pest or weed control at 140 g/ha of 30 to 44%. In the case of `COC(=O)c1nc(-c2ccc(C(F)(F)F)c(C)c2)ccc1Cl` [F308, Methyl 3-chloro-6-(3-methyl-4-(trifluoromethyl)phenyl)picolinate], the pest or weed control at 140 g/ha was 45 to 59%.

Same assay, conditions: post-emergence, 336 h, wild oat (Avena fatua), 14 Days After Application, 140 g ai/ha, read-out: Visual Growth Reduction (%) AVEFA
For `COC(=O)c1nc(-c2cc3nonc3cc2F)c(Cl)cc1Cl` [F327, Methyl 3,5-dichloro-6-(6-fluorobenzo[c][1,2,5]oxadiazol-5-yl)picolinate], the pest or weed control at 140 g/ha was 0 to 29%. In the case of `COC(=O)c1nc(-c2ccc(C(F)(F)F)c(C)c2)ccc1Cl` [F308, Methyl 3-chloro-6-(3-methyl-4-(trifluoromethyl)phenyl)picolinate], the pest or weed control at 140 g/ha was 0 to 29%.

Same assay, conditions: post-emergence, 336 h, yellow nutsedge (Cyperus esculentus), 14 Days After Application, 140 g ai/ha, read-out: Visual Growth Reduction (%) CYPES
For `COC(=O)c1nc(-c2cc3nonc3cc2F)c(Cl)cc1Cl` [F327, Methyl 3,5-dichloro-6-(6-fluorobenzo[c][1,2,5]oxadiazol-5-yl)picolinate], the pest or weed control at 140 g/ha was 0 to 29%. With `COC(=O)c1nc(-c2ccc(C(F)(F)F)c(C)c2)ccc1Cl` [F308, Methyl 3-chloro-6-(3-methyl-4-(trifluoromethyl)phenyl)picolinate] the pest or weed control at 140 g/ha was 0 to 29%.
